Source: patent US12447184B1, “Lactic acid bacteria and use thereof” (UNIVERSITY-INDUSTRY COOPERATION GROUP OF KYUNG HEE …, priority 2017, dated 2025)

Tests used:
C57BL/6 mouse = assay: Elevated plus maze (EPM) test; assay type: in vivo; settings: for OE (%) / OT (%): immobilization stress
Text: In order to induce a mental disorder such as anxiety, depression, stress or the like, a mouse was fixed to a 3×10 cm cylindrical-shaped immobilization stress apparatus, such that the mouse may not move therein at all.
Particularly, in order to prepare a mouse with anxiety induced by immobilization stress, the said mouse, which had been fixed to the apparatus, was repeatedly subjected to immobilization stress five times, in such a way that the mouse was held with its head up for two hours once every other day, and then a behavioral experiment was performed in two hours after a final immobilization stress.
(§1) Also, in order to prepare a mouse with depression induced by immobilization stress, the said mouse, which had been fixed to the apparatus, was repeatedly subjected to continuous immobilization stress once daily for two days, in such a way that the mouse was held with its head up for 12 hours. A lactic acid bacterium was administered once daily for five days, and a behavioral experiment was performed in one hour after a final administration.
In order to induce a mental disorder such as anxiety, depression, stress or the like, a mouse was administered ampicillin (100 mg/kg) for two days in a row. An anxiety behavior was measured in 10 days after administration.
For a mouse model with immobilization stress induced, a lactic acid bacterium or physiological saline solution was administered thereto depending on an experimental group once daily for three days from Day 7 after starting the immobilization stress. For a mouse model with antibiotic stress induced, a lactic acid bacterium or physiological saline solution was administered thereto depending on an experimental group once daily for three days from Day 7 after starting the antibiotic stress.
(§2) An anxiety behavior was measured in five hours after administering the lactic acid bacterium or physiological saline solution, and blood indicators (corticosterone, IL-6, TNF-α, etc.) were measured by collecting blood in one hour after finishing an elevated plus maze test.
An elevated plus maze is an experimental apparatus to measure a degree of a mental disorder such as stress, anxiety or the like. An elevated plus maze experimental apparatus used in the present experiment is a black plexiglass apparatus, in which two open arms (30×7 cm) and two enclosed arms (30×7 cm) with 20 cm-high walls stand 50 cm high above a floor, each extending 7 cm away from a center platform. In the present test, a mouse was placed in the elevated plus maze in a room, where a video camera of 20 Lux was installed high up there, and then a movement of the mouse was recorded.
Particularly, a C57BL/6 mouse (male, 19-22 g) was placed in the middle of the elevated plus maze, in such a way that a head of the mouse faced toward an open arm. Time spent in open and closed arms as well as the number of arm entries were measured for five minutes. An arm entry was defined as a case in which the mouse entered an arm with all four feet.
Out of a whole test time, the time spent in open arms (OT) was calculated via [Time spent in open arms (OT)/(Time spent in open arms (OT)+Time spent in closed arms)]×100. […] After the end of each behavioral experiment, remaining smell was eliminated by means of 70% ethanol.
According to a known interpretation of test results, it was interpreted that a mental disorder symptom such as anxiety, depression or the like occurs, if OT and OE decrease.

mouse [1] = assay: Light/dark transition test; assay type: in vivo; settings: immobilization stress model
Method: An apparatus used for a light/dark transition test consisted of a bright area (21×42×25 cm, 390 Lux white diode) and a dark area (21×42×25 cm, 2 Lux), which were of a size and partitioned off with a door (7.5×7.5 cm). A mouse was placed in a bright area and observed for five minutes, during which time in bright area and the number of transitions into the bright area were measured. After the end of each behavioral experiment, remaining smell was eliminated by means of 70% ethanol.
According to a known interpretation of test results, it was interpreted that a mental disorder symptom such as anxiety, depression or the like occurs, if the time in bright area and the number of transitions into the bright area decrease.

mouse [2] = assay: Forced swimming test (FST); assay type: in vivo; settings: depressed mouse model
Method: as §1
According to a method of Porsolt et al. (Porsolt R D, Le Pichon, Jalfre M (1977) Depression: A new animal model sensitive to antidepressant treatments, Nature, Vol. 266; pp. 730-732), water at 25±1° C. was filled into a water tank 40 cm in height and 20 cm in diameter, until a water level reached 25 cm high. A laboratory mouse was put into each tank and stayed there for total six minutes, out of which first two minutes were not measured as an adaptive time, and then for the last four minutes, an immobility time of the laboratory animal was measured. The immobility means a state that the mouse is floating in the water motionlessly except the least movement to keep its head only above the water.

mouse [3] = assay: Tail suspension test (TST); assay type: in vivo; settings: depressed mouse model
Method: as §1
According to a method of Steru et al. (Steru L, Chermat R, Thierry B, Simon P (1985) The tail suspension test: A new method for screening antidepressants in mice, Psychopharmacology, Vol. 85; pp. 367-370), a mouse was hanged up in a container 35 cm in diameter and 50 cm in height by placing a fixing device approximately 1 cm from the tip of a tail thereof of a mouse, such that the mouse was suspended 50 cm above a floor. For six minutes in total, an immobility time of the laboratory animal was measured.

[4] = system: corticosterone, IL-6, TNF-α and lipopolysaccharide in blood; assay: Blood indicators (corticosterone, IL-6, TNF-α, lipopolysaccharide); assay type: in vivo, mouse; settings: for BC (ng/mL), corticosterone in blood: immobilization stress
Method: as §2
Blood was diluted 10 times with PBS, then centrifuged, and then a resulting supernatant was treated at […] for 10 minutes. A resulting supernatant was filtered with a 0.45 μm filter, then filtered again with a 0.22 μm filter, and then used as a specimen. For the said specimen, lipopolysaccharide was measured by means of Limulus amoebocyte lysate (LAL) assay kit (Cape Cod Inc., East Falmouth, MA, U.S.A.).
(§3) Inflammatory reaction biomarkers such as p-p65, p65, iNOS, COX-2 and β-actin were measured by means of a western blotting method. Particularly, 50 μg of supernatant, which had been obtained by the same method as shown in the said experiment for measuring the activity of myeloperoxidase (MPO), was taken and then immune blotting was performed thereon. Also, an expression level of cytokines was measured by means of ELISA kit, and LPS was measured by means of LAL assay kit.
(§4) In two hours after performing a last behavioral experiment on a depressed mouse, the mouse was anesthetized, and corticosterone in blood was measured by means of ELISA, and a brain derivated neurotrophic factor (BDNF) and NF-κB of a brain and NF-κB of a colon were measured by means of immunoblotting by the same method as shown in Experimental Example 5 above, wherein the results thereof are as shown in a following table 14.

[5] = system: NF-κB (p-p65/p65) and BDNF in a hippocampus; assay: NF-κB activity and BDNF expression in hippocampus (immunoblotting); assay type: in vivo; settings: depressed mouse
Method: as §3, §4

colon [6] = assay: Colitis indicators (colon length, myeloperoxidase, inflammatory indicators of the colon); assay type: in vivo, mouse; settings: immobilization stress
Method: 200 μl of 10 mM potassium phosphate buffer, pH 7.0 containing 0.5% hexadecyl trimethyl ammonium bromide was put into 100 mg of a colon tissue, and then subjected to homogenization. A resulting mixture was centrifuged for 10 minutes on condition of 4° C. and 10,000 g, so as to obtain a supernatant. 50 μl of the supernatant was put into 0.95 ml of a reaction solution (containing 1.6 mM tetramethyl benzidine and 0.1 mM H2O2), then subjected to reaction at 37° C., and then an observance was […] measured at 650 nm. An activity of the said myeloperoxidase (MPO) was calculated with a resulting reactant H2O2 1 μmol/ml=1 unit.
as §3
In two hours after performing a last behavioral experiment on an anxious mouse in Experimental Example 1, the mouse was anesthetized, and a colon length and activations of MPO, COX-2, TNF-α and NF-Kb were measured by the same method as shown in Experimental Example 5, wherein the results thereof are as shown in a following table 15.

mouse [7] = assay: Object recognition test; assay type: in vivo; settings: mouse given LPS from E. coli 0.5 mg/kg/day i.p. for five days
Method: (§5) On a following day after intraperitoneally administering LPS isolated from E. coli (0.5 mg/kg/day) to a mouse for five days, lactic acid bacteria were administered thereto, and an effect of lactic acid bacteria on improving a cognitive function was identified in such a way that an object recognition test and a Y maze test were performed and BDNF in a hippocampus was measured by immunoblotting, wherein the results thereof are as shown in a following table 18.
Particularly, as an object recognition test method, two objects (A, A′) of the same shape and size were fixed into a box (40×40×40 cm), of which outside is not visible from the inside, then a mouse was allowed to start moving at the center of the box, and then the number of touching the two objects was recorded for 10 minutes. In 24 hours later, one of the two objects was replaced with a new one (A, B), and then the number of touching an old one and a new one was recorded and quantified.

mouse [8] = assay: Y maze test; assay type: in vivo; settings: mouse given LPS from E. coli 0.5 mg/kg/day i.p. for five days; spontaneous alteration
Method: as §5
Also, as a Y maze test method, a test apparatus consisted of the three identical arms (8 cm in length, […], 14 cm in height), each positioning at a certain angle of 120°. The mouse was placed at the end of one arm and allowed to freely move in a Y maze for eight minutes, after which the number and order of entering respective arms were measured, so as to evaluate a spontaneous alteration (%). The alteration was defined as an alphabetical character order, in which the mouse sequentially entered into three arms, i.e. ABC, BCA, CAB, etc. % alteration=[Total number of alterations]/[Total number of arm entries−2]×100

BDNF in a hippocampus = BDNF in a hippocampus by immunoblotting (LPS-treated mouse); assay type: in vivo; settings: mouse given LPS from E. coli 0.5 mg/kg/day i.p. for five days
Method: as §5

colon [9] = assay: Colitis indicators (colon length, myeloperoxidase, inflammatory indicators of the colon); assay type: in vivo, mouse; settings: antibiotic stress
[10] = antibiotic stress (ampicillin 100 mg/kg, two days)

## O=C1CC2(CCCC2)CC(=O)N1CCCCN1CCN(c2ncccn2)CC1 [Buspirone]
C57BL/6 mouse; Anxious mouse
  OE (%): 33.8%
C57BL/6 mouse; Anxious mouse, once daily for three days
  OT (%): 16.7%
C57BL/6 mouse; Depressive mouse
  OE (%): 29.8%
  OT (%): 15.7%
C57BL/6 mouse; [10]
  Open arm entries (%): 31.3%
  Time spent in open arms (%): 14.1%
Mouse [1]
  Number of transitions: 19.6
  Time in bright area (%): 40.1%
Mouse [2]
  Immobility time (%): 32.1%
Mouse [3]
  Immobility time (%): 25.2%
[4]; Anxious mouse
  BC (ng/mL), corticosterone in blood: 1.2 ng/mL
[4]; Depressive mouse
  BC (ng/mL), corticosterone in blood: 3.8 ng/mL
[4]; [10]
  Blood corticosterone: 1.6 ng/mL
[4]; depressed mouse, ELISA, Table 14
  Blood corticosterone: 3.8 ng/mL
[5]
  BDNF expression level: − (− , <10%)
  NF-kB activation inhibitory capacity: − (− , <10%)
Colon [6]; Anxious mouse
  Colon length (cm): 5.2 cm
Colon [6]; anxious mouse, colon
  Inflammatory indicator inhibition rate COX-2: + (+, 10~30%)
  Inflammatory indicator inhibition rate NF-κB: + (+, 10~30%)
  Inflammatory indicator inhibition rate TNF-α: + (+, 10~30%)
  MPO inhibitory capacity: + (+, 10~30%)
Mouse [7]
  Object recognition test (%): 42.9%
Mouse [8]
  Y maze test (%): 62.4%
BDNF in a hippocampus
  Hippocampus BDNF expression capacity: + (+, 10~30%)
Colon [9]
  Colon length (cm): 5.5 cm
Colon [9]; colon
  Inflammatory indicator inhibition rate COX-2: + (+, 10~30%)
  Inflammatory indicator inhibition rate NF-κB: + (+, 10~30%)
  Inflammatory indicator inhibition rate TNF-α: + (+, 10~30%)
  MPO inhibitory capacity: + (+, 10~30%)
